Test results from PubChem BioAssay AID248 (DTP/NCI, 2004).
Values joined by “and” are separate entries in the source; they are usually repeats but may differ in a detail not shown here. Identical values can stand only once. Inconclusive results and toxic doses are left out. Rule as the data show it: active = T/C of 150% or more; inactive = T/C below 125%.

System: L1210 leukemia ip in BDF1 mice, survival T/C
Test: NCI In Vivo Anticancer Drug Screen. Data for tumor model L1210 Leukemia (intraperitoneal) in B6D2F1 (BDF1) mice
Conditions: endpoint: mean survival time, higher = longer survival
Outline: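 Mice bearing the transplanted tumor received compound or vehicle. Survival of the treated group was divided by that of the vehicle-treated control group to give the ratio.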

[1] = dose: 100.0 mg/kg/injection, schedule: Q04DX002 (ip), vehicle: saline
[2] = dose: 200.0 mg/kg/injection, schedule: Q04DX002 (ip), vehicle: saline
[3] = dose: 400.0 mg/kg/injection, schedule: Q04DX002 (ip), vehicle: saline
[4] = dose: 100.0 mg/kg/injection, schedule: Q01DX009 (ip), vehicle: saline
[5] = dose: 100.0 mg/kg/injection, schedule: Q04DX003 (ip), vehicle: saline
[6] = dose: 200.0 mg/kg/injection, schedule: Q01DX009 (ip), vehicle: saline
[7] = dose: 200.0 mg/kg/injection, schedule: Q04DX003 (ip), vehicle: saline
[8] = dose: 400.0 mg/kg/injection, schedule: Q01DX009 (ip), vehicle: saline
[9] = dose: 400.0 mg/kg/injection, schedule: Q04DX003 (ip), vehicle: saline
[10] = dose: 50.0 mg/kg/injection, schedule: Q01DX001 (ip), vehicle: carboxymethylcellulose (CMC)
[11] = dose: 100.0 mg/kg/injection, schedule: Q01DX001 (ip), vehicle: carboxymethylcellulose (CMC)
[12] = dose: 12.5 mg/kg/injection, schedule: Q01DX009 (ip), vehicle: saline with Tween-80
[13] = dose: 25.0 mg/kg/injection, schedule: Q01DX009 (ip), vehicle: saline with Tween-80
[14] = dose: 50.0 mg/kg/injection, schedule: Q01DX001 (ip), vehicle: saline
[15] = dose: 100.0 mg/kg/injection, schedule: Q01DX001 (ip), vehicle: saline
[16] = dose: 200.0 mg/kg/injection, schedule: Q01DX001 (ip), vehicle: saline
[17] = dose: 400.0 mg/kg/injection, schedule: Q01DX001 (ip), vehicle: saline

Measured: T/C

C1=C(c2ccccc2)CC2CCCC1N2Cc1ccccc1 (centres undefined)
inactive: dose: 12.5 mg/kg/injection, schedule: Q04DX003 (ip), vehicle: Klucel (hydroxypropylcellulose) (HPC) 102 % of control | dose: 25.0 mg/kg/injection, schedule: Q04DX003 (ip), vehicle: Klucel (hydroxypropylcellulose) (HPC) 102 % of control | dose: 50.0 mg/kg/injection, schedule: Q04DX003 (ip), vehicle: Klucel (hydroxypropylcellulose) (HPC) 94 % of control

COc1cc2c(cc1OC)C1(NCC2)C(=O)Nc2c(C)cc(Cl)cc21 (centres undefined)
inactive: dose: 25.0 mg/kg/injection, schedule: Q04DX002 (ip), vehicle: saline 103 % of control | dose: 50.0 mg/kg/injection, schedule: Q04DX002 (ip), vehicle: saline 92 % of control | [1] 95 % of control and 100 % of control | [2] 92 % of control | [3] 90 % of control

O=C(Nc1cc(C(F)(F)F)ccc1Cl)Oc1ccc(F)cc1Cl
inactive: dose: 100.0 mg/kg/injection, schedule: Q01DX009 (ip), vehicle: Klucel (hydroxypropylcellulose) (HPC) 97 % of control and 101 % of control | dose: 100.0 mg/kg/injection, schedule: Q04DX002 (ip), vehicle: Klucel (hydroxypropylcellulose) (HPC) 95 % of control and 100 % of control | dose: 200.0 mg/kg/injection, schedule: Q01DX009 (ip), vehicle: Klucel (hydroxypropylcellulose) (HPC) 101 % of control and 108 % of control | dose: 200.0 mg/kg/injection, schedule: Q04DX002 (ip), vehicle: Klucel (hydroxypropylcellulose) (HPC) 100 % of control and 104 % of control | dose: 400.0 mg/kg/injection, schedule: Q01DX009 (ip), vehicle: Klucel (hydroxypropylcellulose) (HPC) 108 % of control and 89 % of control | dose: 400.0 mg/kg/injection, schedule: Q04DX002 (ip), vehicle: Klucel (hydroxypropylcellulose) (HPC) 103 % of control and 110 % of control

O=C(Nc1ccc(C(=O)Nc2cccc(C3=NCCN3)c2)cc1)c1ccc(C2=NCCN2)cc1
inactive: dose: 1.88 mg/kg/injection, schedule: Q01DX Z (ip), vehicle: saline 89 % of control | dose: 3.75 mg/kg/injection, schedule: Q01DX Z (ip), vehicle: saline 104 % of control | dose: 7.5 mg/kg/injection, schedule: Q01DX Z (ip), vehicle: saline 102 % of control | dose: 15.0 mg/kg/injection, schedule: Q01DX Z (ip), vehicle: saline 124 % of control

N=C(N)c1ccccc1
inactive: dose: 100.0 mg/kg/injection, schedule: Q01DX Z (ip), vehicle: methylcellulose (MC) 94 % of control | dose: 150.0 mg/kg/injection, schedule: Q01DX Z (ip), vehicle: methylcellulose (MC) 96 % of control and 89 % of control

CC[P+](c1ccccc1)(c1ccccc1)c1ccccc1
inactive: dose: 0.62 mg/kg/injection, schedule: Q01DX009 (ip), vehicle: saline 100 % of control | dose: 0.62 mg/kg/injection, schedule: Q04DX003 (ip), vehicle: saline 100 % of control | dose: 1.25 mg/kg/injection, schedule: Q01DX009 (ip), vehicle: saline 100 % of control | dose: 1.25 mg/kg/injection, schedule: Q04DX003 (ip), vehicle: saline 97 % of control | dose: 2.5 mg/kg/injection, schedule: Q01DX009 (ip), vehicle: saline 100 % of control | dose: 2.5 mg/kg/injection, schedule: Q04DX003 (ip), vehicle: saline 97 % of control

CCOC(=O)CCN1CCCC1
inactive: [4] 110 % of control | [5] 94 % of control | [6] 106 % of control | [7] 103 % of control | [8] 105 % of control | [9] 103 % of control

COc1ccc2ccc(OC)c(C=O)c2c1
inactive: dose: 75.0 mg/kg/injection, schedule: Q01DX009 (ip), vehicle: Klucel (hydroxypropylcellulose) (HPC) 98 % of control | dose: 150.0 mg/kg/injection, schedule: Q01DX009 (ip), vehicle: Klucel (hydroxypropylcellulose) (HPC) 101 % of control | dose: 300.0 mg/kg/injection, schedule: Q01DX009 (ip), vehicle: Klucel (hydroxypropylcellulose) (HPC) 98 % of control

Oc1ccc(Cl)cc1/C=N/Nc1nnc(N/N=C/c2cc(Cl)ccc2O)c2ccccc12
inactive: [10] 90 % of control | [11] 93 % of control | dose: 200.0 mg/kg/injection, schedule: Q01DX001 (ip), vehicle: carboxymethylcellulose (CMC) 95 % of control | dose: 400.0 mg/kg/injection, schedule: Q01DX001 (ip), vehicle: carboxymethylcellulose (CMC) 95 % of control

Oc1c(Cl)cc(Cl)c2cccnc12
inactive: [12] 92 % of control | [13] 90 % of control | [10] 98 % of control | dose: 50.0 mg/kg/injection, schedule: Q01DX009 (ip), vehicle: saline with Tween-80 92 % of control | [11] 91 % of control | dose: 100.0 mg/kg/injection, schedule: Q01DX009 (ip), vehicle: saline with Tween-80 94 % of control

CSc1ncnc2c1ncn2CC(=O)C1CCC2C3CCC4=CC(=O)CCC4(C)C3CCC12C (centres undefined)
inactive: dose: 100.0 mg/kg/injection, schedule: Q01DX001 (sc), vehicle: steriod suspending solution 99 % of control | dose: 200.0 mg/kg/injection, schedule: Q01DX001 (sc), vehicle: steriod suspending solution 100 % of control | dose: 400.0 mg/kg/injection, schedule: Q01DX001 (sc), vehicle: steriod suspending solution 99 % of control

O=[N+]([O-])c1cccc(Cl)c1/C=N/Nc1nnc(N/N=C/c2c(Cl)cccc2[N+](=O)[O-])c2ccccc12
inactive: [14] 96 % of control | [15] 96 % of control | [16] 98 % of control | [17] 98 % of control

O=C(O)CCC(NC(=O)C1CCCCC1C(=O)O)C(=O)O (centres undefined)
inactive: [5] 96 % of control | [7] 86 % of control | [9] 87 % of control

C1CNC(C2=NCCN2)=N1
inactive: [1] 100 % of control | [2] 100 % of control | [3] 90 % of control

C=CCOCC(O)COP(=O)(O)O (centres undefined) (tested in a mixture with another compound)
inactive: [14] 111 % of control and 107 % of control and 97 % of control | [15] 100 % of control and 107 % of control and 103 % of control | [16] 100 % of control and 97 % of control and 103 % of control | [17] 94 % of control and 103 % of control

O=S1Cc2cc3ccccc3cc2C1
inactive: dose: 100.0 mg/kg/injection, schedule: Q01DX001 (ip), vehicle: saline with Tween-80 102 % of control | dose: 200.0 mg/kg/injection, schedule: Q01DX001 (ip), vehicle: saline with Tween-80 103 % of control | dose: 400.0 mg/kg/injection, schedule: Q01DX001 (ip), vehicle: saline with Tween-80 108 % of control

O=C1CC(Nc2ccc(F)cc2)C(=O)N1c1ccc(F)cc1 (centres undefined)
inactive: dose: 75.0 mg/kg/injection, schedule: Q04DX003 (ip), vehicle: other 90 % of control | dose: 150.0 mg/kg/injection, schedule: Q04DX003 (ip), vehicle: other 92 % of control | dose: 300.0 mg/kg/injection, schedule: Q04DX003 (ip), vehicle: other 90 % of control

CC(=O)OC1C(CO)OC2C1Oc1nc(=N)c(F)cn12 (centres undefined)
inactive: [1] 92 % of control

Clc1ccc(SCN(CSc2ccc(Cl)cc2)Cc2ccccc2)cc1
inactive: [15] 91 % of control | [16] 90 % of control

COC(=O)C1CCC(NC(=O)NCCCl)CC1 (centres undefined)
inactive: dose: 100.0 mg/kg/injection, schedule: Q01DX001 (ip), vehicle: Klucel (hydroxypropylcellulose) (HPC) 95 % of control and 103 % of control | dose: 200.0 mg/kg/injection, schedule: Q01DX001 (ip), vehicle: Klucel (hydroxypropylcellulose) (HPC) 93 % of control and 97 % of control | dose: 400.0 mg/kg/injection, schedule: Q01DX001 (ip), vehicle: Klucel (hydroxypropylcellulose) (HPC) 95 % of control

COc1ccc(OC)c(NC(=O)Oc2ccc3ccccc3c2)c1
inactive: [1] 93 % of control | [2] 101 % of control | [3] 96 % of control

CCOC(=O)NC(=S)n1ncnc1N
inactive: dose: 6.25 mg/kg/injection, schedule: Q01DX009 (ip), vehicle: saline with Tween-80 105 % of control | [12] 97 % of control | [13] 100 % of control | dose: 35.0 mg/kg/injection, schedule: Q01DX009 (ip), vehicle: saline with Tween-80 86 % of control

COC(=O)C1CC(O)CC(C(=O)OC)O1 (centres undefined)
inactive: dose: 75.0 mg/kg/injection, schedule: Q01DX001 (ip), vehicle: saline 109 % of control | dose: 150.0 mg/kg/injection, schedule: Q01DX001 (ip), vehicle: saline 93 % of control

CC(=O)OC(C)CN(C)C (centres undefined)
inactive: [4] 103 % of control | [5] 103 % of control | [6] 100 % of control | [7] 105 % of control | [8] 100 % of control | [9] 93 % of control
